Two molecules from EP2334184B1, “FUNGICIDAL MIXTURE, CONTAINING FENPROPIDIN AND PENCONAZOLE” (Syngenta Participations AG, priority 2008, dated 2010) can be followed below.

Each structure is given as a SMILES string.

The subject of data set [1] is rose varieties. Put plainly: Crop safety trials in Holland during the winter / dark season. Format: in vivo. The method, then: The following trials were conducted in Holland during the winter period / dark season, when the total light radiation level is less than 2000 W/m^2 per day.
(§1) These treatments were applied to 8 different rose varieties, and phytotoxicity assessments made at 7 day intervals. A phytotoxicity score of greater than 2.0% indicates unacceptable phytotoxicity; a score of 1.0 to 2.0% is acceptable (but not ideal); a score of less than 1.0% is good.

The test system of data set [2] is rose varieties. As to the kind of experiment: Crop safety trials in Holland in April (summer trials). The data set is classed as in vivo. The conditions noted are these: Cv. Red Naomi. The method, then:
as §1
Corresponding trials were conducted using selected treatments from table 9 above, in Holland in April, when the total light radiation level is above 2000 W/m^2 per day.

The mark [3] stands for this setting: Cv. Grand Prix, 7DAA1 (7 days after first application).
[4] abbreviates: Cv. Grand Prix, <2000 W/m^2 per day, 0DAA0.

In the case of `CCCC(Cn1cncn1)c1ccc(Cl)cc1Cl` (stereo not drawn) [Treatment 8], the “Percentage phytotoxicity (%)” value in data set [1] (setting [3]) amounted to 0.0%; in data set [1] (Cv. Grand Prix, 7DAA2) it was 0.0%; in data set [1] (Cv. Grand Prix, 7DAA3), 1.3%; in data set [1] (Cv. Grand Prix, 14DAA3), 0.0%; in data set [1] (Cv. Grand Prix, 21DAA3), 0.0%; in data set [1] (setting [4]), 0.0%. Further, the “Percentage phytotoxicity (%)” value in data set [1] (Cv. Red Naomi, 0DAA0) amounted to 0.0%; in data set [1] (Cv. Red Naomi, 6DAA2), 0.7%; in data set [1] (Cv. Red Naomi, 7DAA1) it was 1.3%; in data set [1] (Cv. Red Naomi, 7DAA3) it was 0.7%; in data set [1] (Cv. Red Naomi, 18DAA3) it was 0.0%; in data set [2] (7DAA1), 0.0%. Moreover, the “Percentage phytotoxicity (%)” value came to 0.0% in data set [2] (7DAA2); 0.0% in data set [2] (7DAA3); 0.0% in data set [2] (14DAA3); 0.0% in data set [2] (>2000 W/m^2 per day, 0DAA0).
As to `CCCC(Cn1cncn1)c1ccc(Cl)cc1Cl` (stereo not drawn) [Treatment 9], the “Percentage phytotoxicity (%)” value in data set [1] (setting [3]) is reported as 0.0%; in data set [1] (Cv. Grand Prix, 7DAA2), 0.0%; in data set [1] (Cv. Grand Prix, 7DAA3) it was 4.0%; in data set [1] (Cv. Grand Prix, 14DAA3) it was 2.0%; in data set [1] (Cv. Grand Prix, 21DAA3), 0.3%; in data set [1] (setting [4]), 0.0%. The “Percentage phytotoxicity (%)” value in data set [1] (Cv. Red Naomi, 0DAA0) was 0.0%; in data set [1] (Cv. Red Naomi, 6DAA2), 1.7%; in data set [1] (Cv. Red Naomi, 7DAA1), 2.7%; in data set [1] (Cv. Red Naomi, 7DAA3), 3.0%; in data set [1] (Cv. Red Naomi, 18DAA3) it was 0.7%.
